pIC50: −log10 of the molar value. Read-outs that look alike come from different tables or passages of the source. Some results are limits rather than exact numbers.

For 15 compounds, IC50 results are on record in patent US20250122207A1, “AP2 ASSOCIATED KINASE 1 INHIBITORS AND USES THEREOF” (Satellos Bioscience Inc., priority 2023, published 2025).

For test [1], the target named is T1, AAK1 (amino acids T27-A365) (Homo sapiens, UniProt Q2M2I8).
T1 construct: against AAK1 (amino acids T27-A365); 6His (N, cleaved yes)
T1 sequence (Q2M2I8 27-365): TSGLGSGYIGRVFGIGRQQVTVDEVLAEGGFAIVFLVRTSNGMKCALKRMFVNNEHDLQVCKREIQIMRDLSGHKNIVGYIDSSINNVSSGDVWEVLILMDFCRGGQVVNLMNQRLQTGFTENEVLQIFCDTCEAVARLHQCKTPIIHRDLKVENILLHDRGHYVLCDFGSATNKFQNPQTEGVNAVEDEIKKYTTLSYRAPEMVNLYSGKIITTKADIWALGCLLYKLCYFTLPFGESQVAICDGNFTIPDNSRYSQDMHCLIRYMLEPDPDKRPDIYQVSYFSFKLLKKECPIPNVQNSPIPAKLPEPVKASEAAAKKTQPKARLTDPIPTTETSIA
The test is described as follows: AAK1 pSENs assay. The test is classed as biochemical. A digest of the protocol:
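Biotinylated, tag-free AAK1 T27-A365 expressed in E. coli was held at 20 nM in enzyme solution (HEPES pH 7.5, 10 mM MgCl2, DTT, EGTA, Brij35, BSA) and preincubated with compound for 15 min at 25 °C. The reaction was started with an equal volume of substrate solution containing 30 uM AQT0759 peptide and 70 uM ATP. IC50 determined.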

The target in test [2] is T2, BIKE (amino acids S38-E345) (K320A, K321A) (Homo sapiens, UniProt Q9NSY1, K320A/K321A).
T2 construct: against BIKE (amino acids S38-E345) (K320A, K321A); 6His (N, cleaved yes)
T2 sequence (Q9NSY1 38-345 K320A/K321A): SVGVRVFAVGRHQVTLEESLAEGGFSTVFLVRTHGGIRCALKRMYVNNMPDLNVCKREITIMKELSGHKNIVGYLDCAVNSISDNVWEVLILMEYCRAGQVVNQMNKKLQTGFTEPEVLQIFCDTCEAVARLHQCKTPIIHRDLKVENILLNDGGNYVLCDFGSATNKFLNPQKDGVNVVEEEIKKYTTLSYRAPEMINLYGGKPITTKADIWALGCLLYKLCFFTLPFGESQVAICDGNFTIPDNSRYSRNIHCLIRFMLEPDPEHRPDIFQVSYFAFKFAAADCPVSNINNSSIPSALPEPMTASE
The test is described as follows: BIKE pSENs assay. Format: biochemical. A digest of the protocol:
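E. coli-expressed, biotinylated, tag-free BIKE at 20 nM in HEPES pH 7.5 buffer with 10 mM MgCl2 preincubated with compound 15 min at 25° C. Reaction started with 30 uM AQT0759 sensor peptide and 40 uM ATP (concentrations before 1:1 mixing).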

Test [3] addresses T3, GAK (amino acids Q25-N335) (Homo sapiens, UniProt O14976).
T3 construct: against GAK (amino acids Q25-N335); 6His (N, cleaved yes)
T3 sequence (O14976 25-335): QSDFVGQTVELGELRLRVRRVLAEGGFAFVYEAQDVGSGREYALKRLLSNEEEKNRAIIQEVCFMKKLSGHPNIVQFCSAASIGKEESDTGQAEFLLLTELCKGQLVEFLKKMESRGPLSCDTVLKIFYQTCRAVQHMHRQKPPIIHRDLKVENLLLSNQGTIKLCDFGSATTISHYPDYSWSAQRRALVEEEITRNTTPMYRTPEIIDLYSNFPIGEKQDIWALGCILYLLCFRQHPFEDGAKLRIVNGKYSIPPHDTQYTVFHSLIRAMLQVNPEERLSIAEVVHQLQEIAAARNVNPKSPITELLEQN
Briefly: GAK pSENs assay. The test is classed as biochemical. Here is the method:
The recombinant proteins were independently expressed in Escherichia coli BL21(DE3) cells cultured in Luria-Bertani (LB) medium until OD600 reached 0.6-0.8, then cooled to 15° C. and supplemented with 0.5 mM isopropyl 1-thio-D-galactopyranoside (IPTG) induce protein expression 16 h. Cells were harvested and resuspended in lysis buffer (50 mM HEPES pH 7.5, 500 mM NaCl, 5 mM imidazole, 5% glycerol, 0.5 mM Tris (2-carboxyethyl) phosphine (TCEP), cOmplete Protease Inhibitor Tablet (Roche)) and lysed by microfludics high pressure homogenizer (UH-06, Union-Biotech). Proteins were purified using […] chromatography (His FF column, Bestchrom) and eluted stepwise in binding buffer with 20-300 mM imidazole. Removal of the hexahistidine tag was performed at 4° C. overnight using recombinant TEV protease and reacted with BirA to obtain the corresponding biotinylated-AAK1, BIKE or GAK proteins. Further separated in the reverse Strep column (Strep-Tactin® XT, IBA). The Biotin elution sample was collected containing untagged biotinylated protein was then purified by Ion-exchange chromatography (Mono Q 10/100 GL, Cytiva) and Size-exclusion chromatography (HiLoad 16/600 Superdex 200 pg, Cytiva). The pure protein was stored in a storage buffer 50 mM HEPES (pH 7.5), 300 mM NaCl, 5% glycerol at −80° C. Protein were characterized by SDS-PAGE, LC-MS and aSEC.
This example describes one illustrative method for determining the IC50 of the compounds of the present invention against GAK (amino acids Q25-N335).

For another test, the target named is AAK1 (Homo sapiens, UniProt Q2M2I8). The test is described as follows: pAP2M1 cell-based assay (in-cell Western). The source says:
pAP2M1 Cell-Based Assay (in-Cell Western):
The plate was read on Licor Odyssey CLx imaging system (LICOR) to acquire fluorescence intensity at 700 channel and 800 channel.
Data analysis: Fluorescence intensity at 700 channel served as internal standard and 800 channel were normalized with 700 channel.

Where [4] appears, read: class symbols, read-out: AAK1 pSENs: EIC50.
Setting [5] is: class symbols, read-out: BIKE pSENs: IC50.
Setting [6] is: class symbols, read-out: GAK pSENs:IC50.
[7] abbreviates: Hela cells co-transfected with AP2M1 and AAK1, 3 hr treatment, class symbols, read-out: AAK1 In-cell Western: IC50.

Chain of AAK1 (Q2M2I8 whole entry): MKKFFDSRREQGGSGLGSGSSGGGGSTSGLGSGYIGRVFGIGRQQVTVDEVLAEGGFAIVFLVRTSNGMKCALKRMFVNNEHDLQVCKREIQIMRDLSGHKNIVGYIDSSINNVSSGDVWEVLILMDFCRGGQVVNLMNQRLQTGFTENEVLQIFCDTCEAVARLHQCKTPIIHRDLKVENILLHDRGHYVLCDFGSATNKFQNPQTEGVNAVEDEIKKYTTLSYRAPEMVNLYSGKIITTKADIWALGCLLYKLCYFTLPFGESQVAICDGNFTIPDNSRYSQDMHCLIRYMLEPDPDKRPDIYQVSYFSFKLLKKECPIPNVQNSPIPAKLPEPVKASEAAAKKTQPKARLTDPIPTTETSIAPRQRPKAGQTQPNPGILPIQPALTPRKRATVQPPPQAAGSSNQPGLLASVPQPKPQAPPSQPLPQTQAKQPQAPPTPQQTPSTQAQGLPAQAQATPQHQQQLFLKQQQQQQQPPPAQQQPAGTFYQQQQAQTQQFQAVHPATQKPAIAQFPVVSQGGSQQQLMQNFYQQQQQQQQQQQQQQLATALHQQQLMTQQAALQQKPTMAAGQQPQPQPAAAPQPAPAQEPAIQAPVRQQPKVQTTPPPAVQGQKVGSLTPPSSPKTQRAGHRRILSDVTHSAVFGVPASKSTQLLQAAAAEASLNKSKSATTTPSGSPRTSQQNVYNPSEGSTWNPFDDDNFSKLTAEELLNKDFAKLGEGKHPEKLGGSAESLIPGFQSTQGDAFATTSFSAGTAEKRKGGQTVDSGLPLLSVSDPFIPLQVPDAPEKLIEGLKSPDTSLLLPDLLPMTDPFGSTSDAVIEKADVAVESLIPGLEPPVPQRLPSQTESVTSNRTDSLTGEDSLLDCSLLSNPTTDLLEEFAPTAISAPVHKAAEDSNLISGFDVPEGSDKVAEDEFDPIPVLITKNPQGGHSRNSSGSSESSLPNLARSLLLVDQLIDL

On to `CN(CCNc1ccn2ncc(-c3cccnc3OC3CC3)c2n1)C(=O)OC(C)(C)C` [Compound I-12, tert-butyl N-[2-[[3-[2-(Cyclopropoxy)-3-pyridyl]pyrazolo[1,5-a]pyrimidin-5-yl]amino]ethyl]-N-methyl-carbamate], for which the pIC50 in test [1] (setting [4]) is 7.30 to 9.00; in test [2] (setting [5]) it was 6.82 to 7.29; in test [3] (setting [6]) it was 5.82 to 6.30; on AAK1 (setting [7]), 6.30 to 6.82.
The corresponding values for `Oc1ncccc1-c1cnn2ccc(N3CCNCC3)nc12` [Compound I-106, 3-(5-piperazin-1-ylpyrazolo[1,5-a]pyrimidin-3-yl)pyridin-2-ol] are 5.82 to 6.30, 6.30 to 6.82, < 5.82 and < 5.82.
In the case of `c1cc2nc(N3CCNCC3)ccn2n1` [Compound I-105, 5-piperazin-1-ylpyrazolo[1,5-a]pyrimidine], the pIC50 (in test [1]; in test [2]; in test [3]; against AAK1) was < 5.82 in each case.
As to `CN1C[C@@H](OC(=O)N2CCN(c3ccn4nccc4n3)CC2)CC1=O` [Compound I-97, [(3S)-1-methyl-5-oxo-pyrrolidin-3-yl]-4-pyrazolo[1,5-a]pyrimidin-5-ylpiperazine-1-carboxylate], the pIC50 (in test [1] (setting [4]); in test [2] (setting [5]); in test [3] (setting [6]); on AAK1 (setting [7])) was < 5.82 each time.
Turning to `Clc1cnn2ccc(N3CCNCC3)nc12` [Compound I-104, 3-chloro-5-piperazin-1-yl-pyrazolo[1,5-a]pyrimidine], the pIC50 (in test [1] (setting [4]); in test [2] (setting [5]); in test [3] (setting [6]); at AAK1 (setting [7])) was < 5.82 throughout.
As to `CN1C[C@@H](OC(=O)N2CCN(c3ccn4ncc(Cl)c4n3)CC2)CC1=O` [Compound I-96, [(3S)-1-methyl-5-oxo-pyrrolidin-3-yl]-4-(3-chloropyrazolo[1,5-a]pyrimidin-5-yl)piperazine-1-carboxylate], the pIC50 (in test [1] (setting [4]); in test [2] (setting [5]); in test [3] (setting [6]); on AAK1 (setting [7])) was < 5.82 throughout.
For the compound `COc1ncccc1-c1cnn2ccc(N3CCN(C(=O)OC4CCNC4)CC3)nc12` (stereo not drawn) [Compound I-5, Pyrrolidin-3-yl4-[3-(2-methoxy-3-pyridyl)pyrazolo[1,5-a]pyrimidin-5-yl]piperazine-1-carboxylate], the pIC50 in test [1] (setting [4]) is 7.30 to 9.00; in test [2] (setting [5]), 7.30 to 9.00; in test [3] (setting [6]) it was 5.82 to 6.30; at AAK1 (setting [7]), 6.30 to 6.82.
Consider `O=C1C[C@H](OC(=O)N2CCN(c3ccn4ncc(-c5cccnc5OC5CC5)c4n3)CC2)CN1CCOCc1ccccc1` [Compound I-37, [(3S)-1-(2-benzyloxyethyl)-5-oxo-pyrrolidin-3-yl]-4-[3-[2-(cyclopropoxy)-3-pyridyl]pyrazolo[1,5-a]pyrimidin-5-yl]piperazine-1-carboxylate], for which the pIC50 is 7.30 to 9.00 in test [1] (setting [4]), 5.82 to 6.30 in test [2] (setting [5]), 5.82 to 6.30 in test [3] (setting [6]) and 5.82 to 6.30 on AAK1 (setting [7]).
For `C#CC1(OC(=O)N2CCN(c3ccn4ncc(-c5cccnc5OC5CC5)c4n3)CC2)CCNC1` (stereo not drawn) [Compound I-16-7, 3-ethynylpyrrolidin-3-yl-4-(3-(2-cyclopropoxypyridin-3-yl)pyrazolo[1,5-a]pyrimidin-5-yl)piperazine-1-carboxylate], the pIC50 in test [1] (setting [4]) was 7.30 to 9.00; in test [2] (setting [5]), 6.82 to 7.29; in test [3] (setting [6]) it was 6.82 to 7.29; on AAK1 (setting [7]), 7.30 to 9.00.
With `CC(C)Oc1ncccc1-c1cnn2ccc(N3CCN(C(=O)OC4(C)CCNC4)CC3)nc12` (stereo not drawn) [Compound I-21-5, (3-methylpyrrolidin-3-yl)-4-[3-(2-isopropoxy-3-pyridyl)pyrazolo[1,5-a]pyrimidin-5-yl]piperazine-1-carboxylate], the pIC50 in test [1] (setting [4]) is 7.30 to 9.00; in test [2] (setting [5]), 6.30 to 6.82; in test [3] (setting [6]) it was 6.30 to 6.82; on AAK1 (setting [7]) it was 6.30 to 6.82.
`CC1(OC(=O)N2CCN(c3ccn4ncc(-c5ccc(C(N)=O)cc5)c4n3)CC2)COC1` [Compound I-3, (3-methyloxetan-3-yl)-4-[3-(4-carbamoylphenyl)pyrazolo[1,5-a]pyrimidin-5-yl]piperazine-1-carboxylate]: the pIC50 in test [1] (setting [4]) was 7.30 to 9.00; in test [2] (setting [5]) it was 6.82 to 7.29; in test [3] (setting [6]) it was 5.82 to 6.30; at AAK1 (setting [7]), 5.82 to 6.30.
With `CN1C[C@H](OC(=O)N2CCN(c3ccn4ncc(-c5cccnc5OC5CC5)c4n3)CC2)CC1=O` [Compound I-94], the pIC50 is 7.30 to 9.00 in test [1] (setting [4]), 6.30 to 6.82 in test [2], < 5.82 in test [3] and 5.82 to 6.30 at AAK1 (setting [7]).
As for `COc1ncccc1-c1cnn2ccc(N3CCN(C(=O)OC4(C)CCNC4)CC3)nc12` (stereo not drawn) [Compound I-8, (3-Methylpyrrolidin-3-yl)-4-[3-(2-methoxy-3-pyridyl)pyrazolo[1,5-a]pyrimidin-5-yl]piperazine-1-carboxylate], the pIC50 in test [1] (setting [4]) was 7.30 to 9.00; in test [2] (setting [5]) it was 7.30 to 9.00; in test [3] (setting [6]) it was 6.30 to 6.82; at AAK1 (setting [7]) it was 7.30 to 9.00.
As to `C[C@@]1(OC(=O)N2CCN(c3ccn4ncc(-c5cccnc5OC5CC5)c4n3)CC2)CCNC1` [Compound I-14, [(3R)-3-Methylpyrrolidin-3-yl]-4-[3-[2-(cyclopropoxy)-3-pyridyl]pyrazolo[1,5-a]pyrimidin-5-yl]piperazine-1-carboxylate], the pIC50 in test [1] (setting [4]) was 7.30 to 9.00; in test [2] (setting [5]), 6.30 to 6.82; in test [3] (setting [6]) it was 5.82 to 6.30; on AAK1 (setting [7]), 6.30 to 6.82.
As for `O=C1C[C@H](OC(=O)N2CCN(c3ccn4ncc(-c5cccnc5NC5CC5)c4n3)CC2)CN1` [Compound I-45, [(3S)-5-Oxopyrrolidin-3-yl]4-[3-[2-(cyclopropylamino)-3-pyridyl]pyrazolo[1,5-a]pyrimidin-5-yl]piperazine-1-carboxylate], the pIC50 (in test [1] (setting [4]); in test [2] (setting [5]); in test [3] (setting [6]); at AAK1 (setting [7])) was < 5.82 throughout.
